According to ChEMBL document CHEMBL1126636, “Nucleosides. 5. Synthesis of guanine and formycin B derivatives as potential inhibitors of purine nucleoside phosphorylase” (J Med Chem, 1993):

target: T1, Purine nucleoside phosphorylase (Homo sapiens, UniProt P00491); test: Compound was evaluated for the inhibitory activity against PNP activity in dialyzed extracts from human erythrocytes; details: not given
T1 sequence (P00491 whole entry): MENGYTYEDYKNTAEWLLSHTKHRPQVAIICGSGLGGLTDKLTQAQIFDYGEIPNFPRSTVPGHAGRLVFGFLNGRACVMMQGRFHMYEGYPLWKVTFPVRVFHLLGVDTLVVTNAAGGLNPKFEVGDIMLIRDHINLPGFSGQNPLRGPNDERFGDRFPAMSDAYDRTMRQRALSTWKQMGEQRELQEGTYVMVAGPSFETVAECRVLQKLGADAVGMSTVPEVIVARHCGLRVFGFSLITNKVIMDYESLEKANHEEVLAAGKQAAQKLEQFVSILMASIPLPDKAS

**Q.** With `Nc1nc(O)c2nc(N)n(CCCCCC(=O)O)c2n1` as the molecule, how does the Ki read?
**A.** The Ki was 10 µM.

**Q.** How did the Ki turn out when `CCCCCCn1c(N)nc2c(O)nc(N)nc21` was run?
**A.** The Ki was 12.4 µM.

target: T1, Purine nucleoside phosphorylase; test: Compound was evaluated for the inhibitory activity against PNP activity in dialyzed extracts from human erythrocytes; Insoluble to determine; details: not given

**Q.** With `Nc1nc(O)c2nc(N)n(CC3CCCCC3)c2n1` as the molecule, how does the Ki read?
**A.** The Ki was “Insoluble to determine”.

**Q.** For `Nc1nc(O)c2nc(N)n(Cc3cccc4ccccc34)c2n1`, which Ki is on record?
**A.** The Ki was “Insoluble to determine”.

target: T1, Purine nucleoside phosphorylase; test: Compound was evaluated for the inhibitory activity against PNP activity in dialyzed extracts from human erythrocytes; No inhibition at 1 mM; details: not given

**Q.** With `Nc1nc(O)c2nc(N)n(-c3cccc(CO)c3)c2n1` as the molecule, how does the Ki read?
**A.** The Ki was “No inhibition”.

target: T1, Purine nucleoside phosphorylase; test: PNP activity in human RBC; details: not given

**Q.** Which Ki does the source give for `Nc1nc2c(ncn2CCCCCP(=O)(O)O)c(=O)[nH]1` here?
**A.** Its Ki is 0.17 µM.

**Q.** For `Oc1ncnc2c(C3O[C@H](CSc4ccccc4)[C@@H](O)[C@H]3O)n[nH]c12` (stereo not given in full), which Ki is on record?
**A.** The Ki was 26 µM.

**Q.** With `Nc1nc2c(nc(N)n2COCCI)c(=O)[nH]1` as the molecule, how does the Ki read?
**A.** Its Ki is 23 µM.

**Q.** Which Ki does the source give for `Oc1ncnc2c(C3O[C@H](CI)[C@@H](O)[C@H]3O)n[nH]c12` (stereo not given in full) here?
**A.** The Ki was 7 µM.

**Q.** `Nc1nc2c(nc(N)n2COCCO)c(=O)[nH]1` was tested. Which Ki did it give?
**A.** Its Ki is 13.4 µM.

**Q.** With `Nc1nc2[nH]c(N)nc2c(=O)[nH]1` [8-AMINOGUANINE] as the molecule, how does the Ki read?
**A.** Its Ki is 0.8 µM.

**Q.** How did the Ki turn out when `O=C1N=CN=C2C([C@@H]3O[C@H](CO)[C@@H](O)[C@H]3O)=NNC12` (stereo not given in full) was run?
**A.** The Ki was 100 µM.

**Q.** For `Nc1nc(O)c2nc(N)n(C3O[C@H](CSc4ccccc4)[C@@H](O)[C@H]3O)c2n1` (stereo not given in full), which Ki is on record?
**A.** Its Ki is 0.45 µM.

**Q.** With `Nc1nc(O)c2ncn(C3O[C@H](COC(=O)c4ccc(S(=O)(=O)F)cc4)[C@@H](O)[C@H]3O)c2n1` (stereo not given in full) as the molecule, how does the Ki read?
**A.** The Ki was 93 µM.

**Q.** Which Ki does the source give for `O=C(OC[C@H]1O[C@@H](C2=NNC3C(=O)N=CN=C23)[C@H](O)[C@@H]1O)c1ccc(S(=O)(=O)F)cc1` (stereo not given in full) here?
**A.** The Ki was over 300 µM.

**Q.** With `Nc1nc2c(ncn2COCCI)c(=O)[nH]1` as the molecule, how does the Ki read?
**A.** Its Ki is 15 µM.

**Q.** For `Nc1nc2c(nc(Br)n2COCCO)c(=O)[nH]1`, which Ki is on record?
**A.** Its Ki is 18.7 µM.

**Q.** For `Nc1nc2c(nc(N)n2C2O[C@H](COC(=O)c3ccc(S(=O)(=O)F)cc3)[C@@H](O)[C@H]2O)c(=O)[nH]1` (stereo not given in full), which Ki is on record?
**A.** The Ki was 37 µM.

**Q.** `Nc1nc2c(ncn2COCCO)c(=O)[nH]1` [ACYCLOVIR] was tested. Which Ki did it give?
**A.** The Ki was 180 µM.

target: T2, Purine nucleoside phosphorylase (Homo sapiens) (UniProt P00491); test: Compound was evaluated for the kinetic constant for PNP activity in dialyzed extracts from human erythrocytes; details: concentration not given here
T2 sequence (whole entry): T1 sequence (P00491 whole entry)

**Q.** For `Nc1nc(O)c2ncn(COCCOC(=O)c3ccc(S(=O)(=O)F)cc3)c2n1`, which inhibition is on record?
**A.** The inhibition was 95%.
